According to US6767533B1, “Use of a substance binding with the peripheral benzodiazepin receptor for treating skin stress” (Sanofi-Synthelabo, priority 1998, dated 2004):
Where two headings read alike, the source gives them in different places.

What was measured:
[1] = target: T1, peripheral benzodiazepine receptor (PBR) (Homo sapiens, UniProt P30536); assay: Binding studies on keratinocyte line A-431 by displacement of [3H]-PK11195
T1 construct: the peripheral receptor borne by the keratinocytes; host or cells: A-431 human epidermoid carcinoma keratinocyte line

[2] = test system: human keratinocytes; assay: Protection of keratinocytes against UVB-induced cell impairment (apoptosis ELISA); type: cell-based; details: UVB 250 J/m^2 for 16 hours, ligand concentration range between 10 nM and 10 μm
Method: The anti-apoptotic activity of the active agents was measured on human keratinocytes and on fibroblasts (ATCC) which were inoculated in 35 mm Petri dishes (5×10^5 cells/well) in DMEM (Dubelco's Mode Eagle Medium) supplemented with 10% fetal calf serum and left to proliferate to the point of confluence. This culture medium is then drawn off, the cells are rinsed and 0.1% fetal calf serum is added in the presence of a saline solution. Increasing concentrations of the substance to be studied are added. Twenty four hours later, the apoptosis is measured with an ELISA (enzyme-linked immunosorbent assay) assay kit.
Keratinocytes were subjected to ultraviolet radiation of type B (UVB) at a dose of 250 J/m^2 for 16 hours (J. Invest. Dermatol. 1995, 104: 922-927). In the presence of the PBR ligand Ro 5-4864, it was shown that the cell impairment processes induced by the irradiation are prevented in a ligand concentration range of between 10 nM and 10 μm.

T1 sequence (P30536 whole entry): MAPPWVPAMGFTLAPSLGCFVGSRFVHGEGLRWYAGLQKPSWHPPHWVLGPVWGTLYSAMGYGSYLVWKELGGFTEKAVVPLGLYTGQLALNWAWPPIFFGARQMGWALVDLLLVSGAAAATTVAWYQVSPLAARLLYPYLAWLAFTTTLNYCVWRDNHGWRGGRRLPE

In the case of `O=C1CN=C(c2ccccc2Cl)c2cc([N+](=O)[O-])ccc2N1` [clonazepam], the “displacement of the reference peripheral ligand PK 11195” value ([1]; A-431 keratinocyte line, at 3 200 nM) is reported as “inactive”.

In the case of `CN1C(=O)CN=C(c2ccc(Cl)cc2)c2cc(Cl)ccc21` [Ro 5-4864, chlorodiazepam], the IC50 ([1]; A-431 keratinocyte line, read-out: IC50, displacement of the reference peripheral ligand PK 11195) is reported as about 25 nM and the “cell impairment processes induced by UVB irradiation” value [2] is reported as “prevented”.

Compound `CN1C(=O)CN=C(c2ccccc2)c2cc(Cl)ccc21` [diazepam] has an IC50 [1] of about 100 nM.
